The source of these data is patent US4217357A, “Inhibition of thromboxane synthetase with 3-(imidazol-1-ylalkyl)indoles” (Pfizer Inc., priority 1978, dated 1980).

The target of one assay is T1, thromboxane synthetase (Homo sapiens, UniProt P24557).
T1 construct: Indomethacin-pretreated human platelet microsomes; from tissue; host or cells: human platelet microsomes
T1 sequence (P24557 1-533): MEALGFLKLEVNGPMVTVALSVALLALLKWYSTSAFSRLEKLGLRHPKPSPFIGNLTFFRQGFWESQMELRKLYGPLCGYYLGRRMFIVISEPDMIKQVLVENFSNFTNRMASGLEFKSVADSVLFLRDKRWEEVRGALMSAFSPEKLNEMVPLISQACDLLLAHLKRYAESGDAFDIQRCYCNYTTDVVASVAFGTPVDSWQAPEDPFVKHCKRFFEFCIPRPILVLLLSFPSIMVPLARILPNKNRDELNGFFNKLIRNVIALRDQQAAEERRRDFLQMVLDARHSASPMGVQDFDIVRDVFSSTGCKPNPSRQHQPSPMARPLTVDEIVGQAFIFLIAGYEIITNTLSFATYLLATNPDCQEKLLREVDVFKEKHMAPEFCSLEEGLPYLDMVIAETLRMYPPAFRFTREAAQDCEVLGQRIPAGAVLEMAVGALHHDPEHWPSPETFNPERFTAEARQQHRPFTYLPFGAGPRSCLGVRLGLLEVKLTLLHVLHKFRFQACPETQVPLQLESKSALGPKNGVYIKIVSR
The experiment in a line: Thromboxane A2 (TxA2) synthetase in vitro enzyme assay. It counts as biochemical. The note with it: for IC50: indomethacin-pretreated human platelet microsomes, PGH2, 0° C., 2 min, 5 min pre-incubation, read-out: Concentration causing 50% inhibition of (1) thromboxane synthetase; for Ratio of (3) to (1): prostacyclin synthetase / thromboxane synthetase 50% inhibition concentrations. Here is the method:
Indomethacin-pretreated human platelet microsomes (Science, 1976, 193, 163) are incubated with PGH2 (produced as described in test No. 1) at 0° C. for a period of two minutes, and aliquots of the reaction mixture are then superfused over two rabbit aorta spirals which are separated by a delay coil (2 min.). The latter is required in order to allow for the selective decay of the more unstable thromboxane A2 (Proc. Nat. Acad. Sci., 1975, 72, 2994), thereby enabling separate measurement of the increased isometric tension due to the TxA2 formed and the PGH2 remaining to take place. The test compound is then pre-incubated with the enzyme for a period of five minutes, and its ability to inhibit the thromboxane synthetase enzyme is measured as its reduction of the TxA2 component of the isometric tension.

Another assay concerns the target T2, prostacyclin synthetase (Sus scrofa, UniProt A0A5G2QT35).
T2 construct: Pig aorta microsomes; from tissue; host or cells: pig aorta microsomes
T2 sequence (A0A5G2QT35 1-497): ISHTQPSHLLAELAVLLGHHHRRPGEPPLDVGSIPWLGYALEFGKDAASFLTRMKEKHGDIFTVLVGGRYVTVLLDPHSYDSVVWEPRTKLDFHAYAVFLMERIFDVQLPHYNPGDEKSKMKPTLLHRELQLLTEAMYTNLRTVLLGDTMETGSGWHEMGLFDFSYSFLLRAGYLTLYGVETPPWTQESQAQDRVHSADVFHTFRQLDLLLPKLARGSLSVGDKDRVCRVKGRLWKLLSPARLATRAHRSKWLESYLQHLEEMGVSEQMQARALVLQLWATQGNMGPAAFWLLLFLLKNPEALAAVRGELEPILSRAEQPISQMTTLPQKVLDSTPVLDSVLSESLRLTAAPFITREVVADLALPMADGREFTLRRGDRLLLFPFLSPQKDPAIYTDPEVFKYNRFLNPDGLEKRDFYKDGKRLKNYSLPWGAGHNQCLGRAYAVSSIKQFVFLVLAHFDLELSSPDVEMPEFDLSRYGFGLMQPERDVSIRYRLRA
Kind of assay: Prostacyclin (PGI2) synthetase in vitro enzyme assay. The format is biochemical. The following applies: pig aorta microsomes, PGH2, 22° C., 30 seconds; 5 min pre-incubation; read-out: Concentration causing 50% inhibition of (3) prostacyclin synthetase.

The structures appear in SMILES notation.

As to `O=C(C1CC1)n1cc(Cn2ccnc2)c2ccccc21` [XLI, 1-cyclopropylcarbonyl-3-(imidazol-1-yl-methyl)indole], the IC50 at thromboxane synthetase was 4.3 nM.

On to `CN(C)CCn1cc(Cn2ccnc2)c2ccccc21` [XXXVIII, 1-(β-dimethylaminoethyl)-3-(imidazol-1-ylmethyl)indole], for which, on thromboxane synthetase, the IC50 turned out to be 26 nM and the “Ratio of (3) to (1)” value is recorded as > 3,800. Also, the IC50 on prostacyclin synthetase was more than 100000 nM.

For the molecule `c1ccc(Cc2[nH]c3ccccc3c2Cn2ccnc2)cc1` [XXII, 2-benzyl-3-(imidazol-1-ylmethyl)indole], at thromboxane synthetase, the IC50 turned out to be 1 nM and the “Ratio of (3) to (1)” value is > 10^5. For the same molecule, the IC50 at prostacyclin synthetase is more than 100000 nM.

As for `CN(C)c1ccc2[nH]cc(Cn3ccnc3)c2c1` [XXIII, 5-dimethylamino-3-(imidazol-1-ylmethyl)indole], on thromboxane synthetase, the IC50 was 64 nM and the “Ratio of (3) to (1)” value was > 1,500. Besides, the IC50 on prostacyclin synthetase is more than 100000 nM.

In the case of `COc1ccc(C(=O)n2cc(Cn3ccnc3)c3ccccc32)cc1` [XLIII, 3-(imidazol-1-ylmethyl)-1-(p-methoxybenzoyl)indole], on thromboxane synthetase, the IC50 came to 1.7 nM and the “Ratio of (3) to (1)” value is given as > 60,000. The IC50 at prostacyclin synthetase is more than 100000 nM.

Consider `FC(F)(F)c1ccc2c(Cn3ccnc3)c[nH]c2c1` [XXIV, 3-(imidazol-1-ylmethyl)-6-trifluoromethylindole], for which, at thromboxane synthetase, the IC50 worked out at 200 nM and the “Ratio of (3) to (1)” value was 500. For the same molecule, the IC50 on prostacyclin synthetase was 100000 nM.

With `COc1ccccc1-c1[nH]c2ccccc2c1Cn1ccnc1` [XVIII, 2-(o-anisyl)-3-(imidazol-1-ylmethyl)indole], on thromboxane synthetase, the IC50 worked out at 0.38 nM and the “Ratio of (3) to (1)” value is 3,700. Besides, the IC50 on prostacyclin synthetase came out at 1400 nM.

Turning to `Oc1ccc2[nH]cc(Cn3ccnc3)c2c1` [Example XLVII, 5-hydroxy-3-(imidazol-1-ylmethyl)-indole], at thromboxane synthetase, the IC50 turned out to be 2.3 nM and the “Ratio of (3) to (1)” value is reported as 3,500. Moreover, on prostacyclin synthetase, the IC50 is 8000 nM.

`C=C(C)Cn1cc(Cn2ccnc2)c2ccccc21` [XXXV, 3-(imidazol-1-yl-methyl)-1-methallylindole]: on thromboxane synthetase, the IC50 is 3.3 nM and the “Ratio of (3) to (1)” value stood at 300. Further, the IC50 at prostacyclin synthetase was 1000 nM.

On to `C=CCn1cc(C(C)n2ccnc2)c2ccccc21` (stereo not drawn) [XXXII, 1-allyl-3-[α-(imidazol-1-yl)ethyl]indole], for which, on thromboxane synthetase, the IC50 was 36 nM.

Consider `Cc1ccc(C(=O)n2cc(Cn3ccnc3)c3ccccc32)cc1` [XLII, 3-(imidazol-1-ylmethyl)-1-(p-methylbenzoyl)indole], for which, at thromboxane synthetase, the IC50 is 0.41 nM and the “Ratio of (3) to (1)” value was 49,000. Besides, the IC50 at prostacyclin synthetase came out at 20000 nM.

For `CCn1cc(Cn2ccnc2)c2ccccc21` [XXIX, 1-ethyl-3-(imidazol-1-ylmethyl)indole], at thromboxane synthetase, the IC50 turned out to be 1.4 nM and the “Ratio of (3) to (1)” value is reported as > 70,000. Further, the IC50 at prostacyclin synthetase was more than 100000 nM.

As to `CC(c1cn(C)c2ccccc12)n1ccnc1` (stereo not drawn) [XXVIII, 3-[α-(imidazol-1-yl)ethyl]-1-methylindole], the IC50 at thromboxane synthetase was found to be 33 nM.

Turning to `Clc1ccc(-c2[nH]c3ccccc3c2Cn2ccnc2)cc1` [XXI], at thromboxane synthetase, the IC50 was 110 nM and the “Ratio of (3) to (1)” value is given as more than 900. Also, the IC50 on prostacyclin synthetase was more than 100000 nM.

With `c1ccc2c(c1)c(Cn1ccnc1)cn2CC1CC1` [XXXVI, 1-cyclopropylmethyl-3-(imidazol-1-ylmethyl)indole], on thromboxane synthetase, the IC50 was found to be 11 nM and the “Ratio of (3) to (1)” value was 9,000. Also, at prostacyclin synthetase, the IC50 was 100000 nM.

Take `Cc1ccccc1-c1[nH]c2ccccc2c1Cn1ccnc1` [XV, 3-(imidazol-1-ylmethyl)-2-(o-tolyl)indole]: at thromboxane synthetase, the IC50 came out at 0.014 nM and the “Ratio of (3) to (1)” value is listed as 10^6. Also, the IC50 on prostacyclin synthetase turned out to be 14000 nM.

For the molecule `COc1ccc(-c2[nH]c3ccccc3c2Cn2ccnc2)cc1` [XIX, 2-(p-anisyl)-3-(imidazol-1-ylmethyl)indole], the IC50 at thromboxane synthetase is 120 nM.

As to `O=C(c1cccc(C(F)(F)F)c1)n1cc(Cn2ccnc2)c2ccccc21` [Example XLV, 3-(imidazol-1-ylmethyl)-1-(m-trifluoromethylbenzoyl)indole], on thromboxane synthetase, the IC50 amounted to 100 nM.

For the molecule `c1ccc(COc2ccc3[nH]cc(Cn4ccnc4)c3c2)cc1` [Example XXV, 5-benzyloxy-3-(imidazol-1-ylmethyl)indole], at thromboxane synthetase, the IC50 was determined as 260 nM and the “Ratio of (3) to (1)” value was determined as 140. Besides, the IC50 at prostacyclin synthetase was determined as 37000 nM.

Consider `CC(=O)n1cc(Cn2ccnc2)c2ccccc21` [Example XLVI, 1-acetyl-3-(imidazol-1-ylmethyl)indole], for which, on thromboxane synthetase, the IC50 stood at 1.2 nM and the “Ratio of (3) to (1)” value is listed as 57,000. Further, the IC50 on prostacyclin synthetase turned out to be 68000 nM.

On to `C=CCn1cc(Cn2ccnc2)c2ccccc21` [XXXI, 1-allyl-3-(imidazol-1-ylmethyl)indole], for which, on thromboxane synthetase, the IC50 was found to be 0.058 nM and the “Ratio of (3) to (1)” value is on record as > 1.7×10^6. Further, the IC50 on prostacyclin synthetase is more than 100000 nM.

On to `CC(c1c[nH]c2ccccc12)n1ccnc1` (stereo not drawn) [Example VII, 3-[α-(imidazol-1-yl)ethyl]indole], for which, at thromboxane synthetase, the IC50 came out at 30 nM and the “Ratio of (3) to (1)” value is reported as 3,300. For the same molecule, at prostacyclin synthetase, the IC50 is more than 100000 nM.

Regarding `c1ccc2c(Cn3ccnc3)c(C34CC5CC(CC(C5)C3)C4)[nH]c2c1` [XIV], on thromboxane synthetase, the IC50 amounted to 2.5 nM and the “Ratio of (3) to (1)” value was determined as 400. Further, the IC50 on prostacyclin synthetase came out at 1000 nM.

With `COCCn1cc(Cn2ccnc2)c2ccccc21` [XXXVII, 3-(imidazol-1-ylmethyl)-1-(β-methoxyethyl)indole], at thromboxane synthetase, the IC50 worked out at 45 nM and the “Ratio of (3) to (1)” value is > 2,200. Also, the IC50 at prostacyclin synthetase was more than 100000 nM.

`CCCn1cc(Cn2ccnc2)c2ccccc21` [XXX, 3-(imidazol-1-ylmethyl)-1-(n-propyl)indole]: at thromboxane synthetase, the IC50 was determined as 4 nM and the “Ratio of (3) to (1)” value is on record as > 2,500. Also, on prostacyclin synthetase, the IC50 was more than 100000 nM.

In the case of `Cc1ccc2[nH]cc(Cn3ccnc3)c2c1` [XI, 3-(imidazol-1-ylmethyl)-5-methylindole], at thromboxane synthetase, the IC50 amounted to 58 nM and the “Ratio of (3) to (1)” value is listed as 600. The IC50 at prostacyclin synthetase turned out to be 35000 nM.

As for `Clc1ccc(Cn2cc(Cn3ccnc3)c3ccccc32)cc1` [XXXIX, 1-(p-chlorobenzyl)-3-(imidazol-1-ylmethyl)indole], at thromboxane synthetase, the IC50 was 86 nM and the “Ratio of (3) to (1)” value is reported as 210. On prostacyclin synthetase, the IC50 came out at 18000 nM.
